Source: patent publication US8728442B2, “Method of controlling the growth of microorganisms by a composition containing isolated or in vitro synthesized nitrosoamides” (Bayer CropScience LP, priority 2009, dated 2014)
≈ marks a conversion by molar mass, not a printed value. Where two headings read alike, the source gives them in different places.

Columns and labels:
[1] = test system: Pseudomonas aeruginosa PAO1, Enterococcus faecalis V583 and Staphylococcus aureus Mu50 biofilm; assay: Lubbock chronic wound biofilm model: biofilm formation and dry weight; settings: biofilm at 24 hours
[2] = test system: Listeria monocytogenes (ATCC 13932); assay: MIC and MBC by Macrodilution Broth Method; type: cell-based
[3] = test system: Legionella pneumophila (ATCC 33152); assay: microbe, parasite or virus in culture; type: cell-based
[4] = test system: Staphylococcus aureus Mu50; assay: Lubbock biofilm model: relative ratio of bacterium by qPCR
[5] = test system: Shigella dysenteriae (ATCC 12021); assay: MIC and MBC by Macrodilution Broth Method; type: cell-based
[6] = test system: Pseudomonas aeruginosa PAO1; assay: Lubbock biofilm model: relative ratio of bacterium by qPCR
[7] = test system: Enterococcus faecalis V583; assay: as above
[8] = test system: Methicillin Resistant Staphylococcus aureus (MRSA) (ATCC 33591); assay: MIC and MBC by Macrodilution Broth Method; type: cell-based
[9] = test system: Staphylococcus aureus (MRSA) (ATCC 33591); assay: MIC and MBC of Compound 1 and analogs, macrodilution
[10] = test system: Enterobacter cloacae (ATCC 13047); assay: MIC and MBC by Macrodilution Broth Method; type: cell-based
[11] = test system: Corynebacterium renale (ATCC 10848); assay: MIC and MBC by Macrodilution Broth Method; type: cell-based; settings: ATCC10848, Corynebacterum renale
[12] = Temperature and pH lability (GC-MS of ethanol eluate); type: physicochemical; settings: high pH (above pH 7)
Method: As shown at a standard GC/MS injection temperature of 250° C., N-methyl N-nitroso isobutyramide is not detected as it most likely has broken down into other compounds. Therefore, this compound has never been previously identified.

[13] = test system: Klebsiella pneumoniae (ATCC 35657); assay: MIC and MBC by Macrodilution Broth Method; type: cell-based
[14] = test system: Clostridium sporogenes (ATCC 11437); assay: MIC and MBC by Macrodilution Broth Method; type: cell-based; settings: ATCC11437, read-out: MIC concentration (ppm)
[15] = test system: Bacillus cereus (ATCC 10702); assay: MIC and MBC by Macrodilution Broth Method; type: cell-based
Penicillium expansum = assay: Fungicidal activity, fumigation of Penicillium expansum spore plates in sealed 6 L containers; type: cell-based; settings: Penicillium expansum, 24 h, 24 h exposure, further 48 h incubation, read-out: Amount for 100% inhibition (μg compound/L air)
Method: Experiments were conducted to determine the fungicidal activity of several compounds of the invention using Penicillium expansum as the test organism.
Plates of potato dextrose agar were streaked with a standard culture of Penicillium expansum spores (0.1 ml of a 2×10^5 cfu/ml) and placed in sealed plastic containers (nominal volume 6 liters). The containers (Rubbermaid) were fitted with a small fan (Radio Shack 12VDC) in the lids to ensure good distribution of the test compounds. The plates were exposed to different volumes (2.5 μl, 5 μl, 10 μl, 20 μl, 40 μl, 80 μl, or 120 μl) of standard solutions (1.0 to 4.0 mg/ml) of tested compounds in ethanol, under ambient conditions. After exposing for 24 h, the plates were removed and incubated for a further 48 h, at ambient temperature, and then monitored for growth of the test organism by visual observation.
The following tables provide summary results of three separate studies to determine the minimum amounts of the compounds needed to produce 100% inhibition of growth of the test organism. Results are expressed as minimal volumes (μl/6 L) and amounts (μg/L) required to produce 100% inhibition.

[16] = test system: Streptococcus pyogenes (ATCC 10096); assay: MIC and MBC by Macrodilution Broth Method; type: cell-based; settings: ATCC10096, Streptococcus pyrogenes
[17] = test system: E. coli 0157:H7 (ATCC 43894); assay: MIC and MBC by Macrodilution Broth Method; type: cell-based; settings: ATCC43894, Escherichia coli 0157:H7
[18] = test system: Proteus mirabilis (ATCC 3559); assay: MIC and MBC by Macrodilution Broth Method; type: cell-based
[19] = read-out: MBC concentration (ppm)
[20] = 37° C., 16 to 20 hours, read-out: MIC concentration (ppm)

In the case of CC(C)C(=O)N(C)N=O [Compound 1, N-methyl N-nitrosoisobutyramide], the “dry weight mg ± SD” value ([1]; dilution 1:10) was 21.7 ± 3.2 mg, the “dry weight mg ± SD” value ([1]; dilution 1:100) was 59 ± 4.4 mg and the “dry weight mg ± SD” value ([1]; dilution 1:1000) was 63 ± 5.3 mg. The “dry weight mg ± SD” value ([1]; dilution 1:10000) was 79.7 ± 5.5 mg, the MIC ([2]; ATCC13932, 37° C., 16 to 20 hours, read-out: MIC concentration (ppm)) was 3.13 µg/mL (≈ 24 µM) and the MBC ([2]; ATCC13932, read-out: MBC concentration (ppm)) was 12.5 µg/mL (≈ 96 µM). The MBC ([3]; ATCC33152, read-out: MBC concentration (ppm)) was 25 µg/mL (≈ 192 µM), the MIC ([3]; ATCC33152, read-out: MIC concentration (ppm)) was 6.25 µg/mL (≈ 48 µM) and the “S. aureus relative ratio in biofilm” value ([4]; dilution 1:10, 24 hours) was 0.27% ± 0.0%. For the same molecule, the “S. aureus relative ratio in biofilm” value ([4]; dilution 1:100, 24 hours) was 13.9% ± 0.2%, the “S. aureus relative ratio in biofilm” value ([4]; dilution 1:1000, 24 hours) was 15.2% ± 1.6% and the “S. aureus relative ratio in biofilm” value ([4]; dilution 1:10000, 24 hours) was 47.2% ± 1.2%. For the same molecule, the MBC ([5]; ATCC12021, read-out: MBC concentration (ppm)) was 12.5 µg/mL (≈ 96 µM), the MIC ([5]; ATCC12021, read-out: MIC concentration (ppm)) was 6.25 µg/mL (≈ 48 µM) and the “P. aeruginosa relative ratio in biofilm” value ([6]; dilution 1:10, 24 hours) was 34.3% ± 1.2%. The “P. aeruginosa relative ratio in biofilm” value ([6]; dilution 1:100, 24 hours) was 46.7% ± 8.0%, the “P. aeruginosa relative ratio in biofilm” value ([6]; dilution 1:1000, 24 hours) was 50.5% ± 8.4% and the “P. aeruginosa relative ratio in biofilm” value ([6]; dilution 1:10000, 24 hours) was 20.3% ± 0.9%. The “E. faecalis relative ratio in biofilm” value ([7]; dilution 1:10, 24 hours) was 65.5% ± 0.6%, the “E. faecalis relative ratio in biofilm” value ([7]; dilution 1:100, 24 hours) was 39.5% ± 1.0% and the “E. faecalis relative ratio in biofilm” value ([7]; dilution 1:1000, 24 hours) was 34.4% ± 0.2%. For the same molecule, the “E. faecalis relative ratio in biofilm” value ([7]; dilution 1:10000, 24 hours) was 32.6% ± 0.3%, the MBC [8, 19] was 12.5 µg/mL (≈ 96 µM) and the MIC ([8]; read-out: MIC concentration (ppm)) was 6.25 µg/mL (≈ 48 µM). It also gave an MIC ([9]; 19 h) of 6.25 µg/mL, an MBC ([9]; 25 h) of 12.5 µg/mL and an MIC ([10]; ATCC13047, 37° C., 16 to 20 hours, read-out: MIC concentration (ppm)) of 12.5 µg/mL (≈ 96 µM). For the same molecule, the MBC ([10]; ATCC13047, read-out: MBC concentration (ppm)) was 12.5 µg/mL (≈ 96 µM), the MIC [11, 20] was 6.25 µg/mL (≈ 48 µM) and the MBC [11, 19] was 12.5 µg/mL (≈ 96 µM). For the same molecule, the “stability to pH” value [12] was “unstable”, the MIC ([13]; ATCC35657, 37° C., 16 to 20 hours, read-out: MIC concentration (ppm)) was 12.5 µg/mL (≈ 96 µM) and the MBC ([13]; ATCC35657, read-out: MBC concentration (ppm)) was 12.5 µg/mL (≈ 96 µM). For the same molecule, the MIC [14] was 25 µg/mL (≈ 192 µM), the MIC ([15]; ATCC10702, 37° C., 16 to 20 hours, read-out: MIC concentration (ppm)) was 6.25 µg/mL (≈ 48 µM) and the MBC ([15]; ATCC10702, read-out: MBC concentration (ppm)) was 12.5 µg/mL (≈ 96 µM). The MIC (Penicillium expansum; Experiment #1) was 0.0045 µg/mL (≈ 0.0346 µM), the MIC (Penicillium expansum; Experiment #2) was 0.0043 µg/mL (≈ 0.033 µM) and the MIC (Penicillium expansum; Experiment #3) was 0.004 µg/mL (≈ 0.0307 µM). The MIC (Penicillium expansum; Experiment #4) was 0.0084 µg/mL (≈ 0.0645 µM), the MIC [16, 20] was 6.25 µg/mL (≈ 48 µM) and the MBC [16, 19] was 6.25 µg/mL (≈ 48 µM). It also gave an MIC [17, 20] of 12.5 µg/mL (≈ 96 µM), an MBC [17, 19] of 12.5 µg/mL (≈ 96 µM) and an MIC ([18]; ATCC3559, 37° C., 16 to 20 hours, read-out: MIC concentration (ppm)) of 6.25 µg/mL (≈ 48 µM). It also gave an MBC ([18]; ATCC3559, read-out: MBC concentration (ppm)) of 12.5 µg/mL (≈ 96 µM).
